Values quoted from earlier work as cited in patent publication US9925200B2, “Stable formulations of testosterone undecanoate” (Merck Sharp & Dohme B.V., priority 2014, dated 2018).

Columns and labels:
[1] = not given; remark: listed apart in the source

For `CCCCCCCCCCC(=O)O[C@H]1CC[C@H]2[C@@H]3CCC4=CC(=O)CC[C@]4(C)[C@H]3CC[C@]12C` [Testosterone undecanoate], which water solubility is on record?
Its water solubility is “very low”.

And the “Log P” value [1]?
Its value is 9.1.
